# Assay results taken from patent publication US10704075B2, “Method for determining the reaction of a microorganism to its exposure to a chemical compound” (bioMérieux, priority 2015, dated 2020).
# Key:
# [1] = tested on: Escherichia coli strain ATCC 25922 called "EC10"; assay: Reference methods (bioMérieux ETEST and VITEK card N233), strain EC10; assay type: cell-based; details: for phenotype according to the EUCAST / reference: from reference MIC
# Text: In order to illustrate the performances obtained accordingly, the average score obtained for all the results that would be obtained with a combination of 5 spectra per concentration (N=5) out of a total set of total acquired spectra of 294 spectra (M=294) is shown in FIG. 4. […] The score indicates the percentage of the test samples that are assigned to a given class by the classifier described above. […] The strain can therefore be described as sensitive according to the invention with a high reliability on the basis of only a few individual bacteria analyses. The result is consistent with the reference methods [BioMérieux products ETEST® (antimicrobial susceptibility testing kit) GM 256 (ref. 412368) and VITEK® card N233 (Gram Negative Susceptibility card; ref. 413117)] which give as a result a MIC=1 μg/mL, which confirms that the bacterium is not resistant according to the EUCAST, its MIC not being strictly above the threshold defined by this organism.
# A MIC comprised between 4 μg/mL and 8 μg/mL can therefore be assigned to this strain according to the assays. This variability to a dilution factor is very frequent in this type of assay, the EUCAST indicates, for example, ranges of MIC variations of [2-8]μg/mL for this strain ATCC 25922 during quality controls of the MIC disc diffusion tests, and is therefore consistent with expected results.
# The detection of an effect for concentrations greater than 0.005 μg/mL is thus observed. An antibiotic effect of ciprofloxacin can therefore be assigned to the strain tested for concentrations greater than 0.005 μg/mL. This test would therefore define a concentration of 0.005 μg/mL as a MIC. A new test could possibly be performed by adding the lowest concentrations between 0 and 0.005 μg/mL if necessary. […] A test performed with a suitable etest (bioMérieux) allows measuring a MIC of 0.008 μg/mL which confirms that the obtained result is in accordance with the reference methods [BioMérieux products ETEST® CI 32 (antimicrobial susceptibility testing kit; ref. 412311) and VITEK® card N233 (Gram Negative Susceptibility card; ref. 413117)].
# [2] = tested on: Escherichia coli strain ATCC 35421 called "EC21"; assay: Raman spectroscopy analysis of individual bacteria exposed to an antibiotic (method of the invention), strain EC21; assay type: cell-based
# Protocol: A test identical to that of Example 1 is conducted on another strain of Escherichia coli, the strain ATCC 35421 called “EC21” allows confirming the discriminatory nature of the measurement.
# In order to illustrate the discriminating power of this method, the same test performed for a strain of Escherichia coli ATCC 35421 resistant to amoxicillin called “EC21” is also shown.
# A solution containing the bacteria to be tested, EC10 or EC21, is used as test sample. This solution is obtained by suspending 5 10^7 CFU/mL in water in order to have a concentration potentially encountered in a clinical sample, for example a urine collection. This bacteria solution is distributed in 5 filter tubes (for example MICROCON (Centrifugal filters) YM100 from Millipore) at a rate of 150 μL per tube. A sufficient amount is added to each of these tubes for the final 250 μL of physiological medium allowing the growth constituted in this example of a mixture of PBS of final concentration of 1× (obtained from the PBS tablets of the reference A9162,0100 of the brand AppliChem), of a nutrient medium TSB 0.1× (for example obtained from Bouillon TSB-T […] A8523-10ML of Sigma-Aldrich) as follows: • c0=0 μg/mL • c1=2 μg/mL • c2=4 μg/mL • c3=8 μg/mL • c4=16 μg/mL
# The 5 tubes obtained accordingly are incubated for 2 hours at 37° C. with stirring. Centrifugation at 1200 g for 8 minutes using a centrifuge adapted to the used containers (for example the model 8415C of the brand Eppendorf) then allows retrieving a bacterial pellet on the filter portion of each tube and eliminating the medium. The bacterial pellets are respectively resuspended in water in order to carry out a washing before being again pelletized by centrifugation (1200 g for 10 minutes) always on the filter portion of the tube. These pellets are distributed on a glass slide of the Marienfield type constituting the interface I (not functionalized in this configuration) by means of a swab in corresponding chambers noted C0 to C4. […]
# [3] = tested on: Escherichia coli strain ATCC 25922; details: cited from earlier work
# [4] = tested on: Escherichia coli strain ATCC 25922 called "EC10"; assay: Raman spectroscopy analysis of individual bacteria exposed to an antibiotic (method of the invention), strain EC10; assay type: cell-based
# Protocol: (§1) The retained conditioning device is constituted of two fluidic chambers and two antibiotic concentrations are tested: c0: “Without antibiotic” and “Resistance test”.
# Let c1 be the concentration of gentamicin: c1=8 μg/mL, which corresponds to the doubling of the concentration 4 μg/mL corresponding to the clinical breakpoint as defined by the EUCAST. The objective of this test is to determine whether the bacterium is considered as resistant according to the definitions provided by the EUCAST.
# A solution containing the bacteria to be tested is used as a test sample. This solution is obtained by suspending 5.10^7 CFU/mL in order to have a concentration potentially encountered in a clinical sample, for example a urine collection. This bacteria solution is brought into contact with the interface I of the device functionalized by adsorbing polyethylenimine (PEI) (generic capture). After a capture time of 10 minutes allowing the bacteria to come into contact with the functionalization, the interface I is washed with a water solution, this optional step allowing to eliminate the surplus of uncaptured bacteria still in solution. The physiological medium retained in this example is constituted of a poorly enriched mixture of Bouillon TSB-T Trypcase Soy broth (for example of the reference 42100 of bioMérieux) and of PBS 10× (for example obtained from the PBS tablets of the reference A9162, 0100 of the brand AppliChem) in a 1:9 ratio. After dividing this physiological medium into two fractions, an amount of gentamicin (for example of the reference G1397-10ML of Sigma-Aldrich) is added respectively to each of these fractions, allowing to obtain a different concentration of gentamicin c0 or c1. The solutions of concentrations c0 and c1 produced accordingly are respectively introduced into the chambers C0 or C1. The bacteria captured directly from the sample on the surface I are thus exposed, in a suitable medium, to a different antibiotic concentration depending on the chamber in which they are present.
# The device is then heated in order to reach a temperature of 37° C. for two hours and then placed in measurement position on the micro-spectrometer. The marking of the captured bacteria is carried out by an automatic procedure based on image analysis, by a conventional procedure for detecting particles, acquired by means of the micro-spectrometer camera and a suitable light source. This marking allows acquiring automatically a series of Raman spectra (S0 and S1, respectively) acquired on individual bacteria present in each chamber C0 and C1. The number of spectra to be acquired for constituting a dataset depends on the level of requirement on the performances of the tests to be carried out. […]
# [5] = tested on: Escherichia coli strain ATCC 35421 called "EC21"; assay: Reference methods, strain EC21; assay type: cell-based; details: for phenotype according to the EUCAST / reference: from reference MIC
# Protocol: A MIC>8 μg/mL can be assigned to this strain with this test, which is also consistent with the results obtained by the reference method.
# [6] = tested on: Staphylococcus aureus strain ATCC 25923 called "SA44"; assay: Raman spectroscopy analysis of individual bacteria exposed to an antibiotic (method of the invention), strain SA44; assay type: cell-based
# Protocol: as §1
# Let c1 be the concentration of oxacillin: c1=8 μg/mL which corresponds to multiplying by a factor of 32 the concentration of 0.25 μg/mL which corresponds to the clinical breakpoint as defined by the EUCAST. The objective of this test is to determine whether the bacterial strain is considered as resistant according to the definitions provided by the EUCAST.
# A solution containing the bacteria to be tested is used as a test sample. This solution is obtained by suspending 5.10^7 CFU/mL in order to have a concentration potentially encountered in a clinical sample, for example a urine collection. The bacteria can come from a culture in a liquid medium or a culture in agar medium in Petri dish. This bacteria solution is brought into contact with the interface I of the device functionalized by adsorbing polyethylenimine (PEI) (generic capture). After a capture time of 10 minutes allowing the bacteria to come into contact with the functionalization, the interface I is washed with a water solution, this optional step allowing to eliminate the surplus of uncaptured bacteria still in solution. […]
# [7] = tested on: Staphylococcus aureus strain ATCC 25923 called "SA44"; assay: Reference methods (bioMérieux ETEST OX 256 or VITEK card P631), strain SA44; assay type: cell-based
# [8] = tested on: E. coli; details: cited from earlier work
compound,measurement,setting,value
CC1(C)S[C@@H]2[C@H](NC(=O)[C@H](N)c3ccc(O)cc3)C(=O)N2[C@H]1C(=O)O [amoxicillin],MIC,"[1]; Escherichia coli, ATCC25922, read-out: MIC (reference methods, MICREF)",6 mg/L
same,phenotype according to the EUCAST / reference,[1],sensitive
same,MIC,"[2]; Escherichia coli, ATCC35421, Raman, tested 0, 4 and 8 μg/mL, N=11, read-out: MIC assigned by the method of the invention",> 8 mg/L
same,category assigned to the vast majority of the measured groups,"[2]; amoxicillin 4 and 8 μg/mL, N=11, FIG. 7",without ATB effect
same,EUCAST range of MIC variations (acceptable variation range),[3]; quality control range,2 to 8 mg/L
same,MIC,"[4]; Escherichia coli, ATCC25922, Raman, 2 hours at 37° C. incubation, read-out: MIC assigned by the method of the invention",4 to 8 mg/L
same,MIC,"[5]; Escherichia coli, ATCC35421, read-out: MIC (reference methods, MICREF)",256 mg/L
same,phenotype according to the EUCAST / reference,[5],resistant
O=C(O)c1cn(C2CC2)c2cc(N3CCNCC3)c(F)cc2c1=O [ciprofloxacin],EUCAST known MIC,[3],0.008 mg/L
same,concentrations at which an antibiotic effect is detected,"[4]; Raman, distance to gentamicin reference signature, tested 0, 0.005, 0.015, 0.064 μg/mL",greater than 0.005 μg/mL
Cc1onc(-c2ccccc2)c1C(=O)N[C@@H]1C(=O)N2[C@@H]1SC(C)(C)[C@@H]2C(=O)O [oxacillin],sensitivity phenotype according to the invention,[6]; Raman test at 8 μg/mL,sensitive
same,"percentage of test samples classified as ""ATB effect""","[6]; oxacillin 8 μg/mL, 2 hours at 37° C., N=9, M=337, FIG. 12 (liquid medium cultures)",greater than 97%
same,MIC,"[7]; Staphylococcus aureus, ATCC25923, ETEST OX 256 or VITEK card P631",0.25 mg/L
same,phenotype according to the EUCAST / reference,[7]; from reference MIC,not resistant
gentamicin,"MIC (reference methods, MICREF)",[1]; ETEST / VITEK card N233,1 mg/L
same,phenotype according to the EUCAST / reference,[1],not resistant
same,percentage of performed tests that do not show a characteristic effect profile of the antibiotic agent,"[2]; gentamicin 8 μg/mL, N=5, M=133",100%
same,"typical MIC, or epidemiological cut-off of the species",[8],2 μg/mL
same,sensitivity phenotype according to the invention,[4]; Raman test at 8 μg/mL,sensitive
same,"percentage of test samples classified as ""ATB effect""","[4]; gentamicin 8 μg/mL, 2 hours at 37° C., N=5 spectra per sample, M=294, SVM classifier",97.1%
same,phenotype according to the EUCAST / reference,[5],resistant
same,"MIC (reference methods, MICREF)",[5]; reference methods,> 256 mg/L
